Reference: ChEMBL document CHEMBL4196240, “Structurally Diverse Sesquiterpenoids from the Endangered Ornamental Plant Michelia shiluensis” (J Nat Prod, 2018)

Tests used:
A549 = test: Cytotoxicity against human A549 cells after 24 hrs by MTS assay; format: functional, cell-based; settings: A549, 24 h
MCF7 = test: Cytotoxicity against human MCF7 cells after 24 hrs by MTS assay; format: functional, cell-based; settings: MCF7, 24 h
[1] = molecular target: T1, Tyrosine-protein phosphatase non-receptor type 1 (Homo sapiens, UniProt P18031); test: Inhibition of recombinant human GST-tagged PTP1B catalytic domain using para-nitrophenyl phosphate as substrate
T1 sequence (P18031 whole entry): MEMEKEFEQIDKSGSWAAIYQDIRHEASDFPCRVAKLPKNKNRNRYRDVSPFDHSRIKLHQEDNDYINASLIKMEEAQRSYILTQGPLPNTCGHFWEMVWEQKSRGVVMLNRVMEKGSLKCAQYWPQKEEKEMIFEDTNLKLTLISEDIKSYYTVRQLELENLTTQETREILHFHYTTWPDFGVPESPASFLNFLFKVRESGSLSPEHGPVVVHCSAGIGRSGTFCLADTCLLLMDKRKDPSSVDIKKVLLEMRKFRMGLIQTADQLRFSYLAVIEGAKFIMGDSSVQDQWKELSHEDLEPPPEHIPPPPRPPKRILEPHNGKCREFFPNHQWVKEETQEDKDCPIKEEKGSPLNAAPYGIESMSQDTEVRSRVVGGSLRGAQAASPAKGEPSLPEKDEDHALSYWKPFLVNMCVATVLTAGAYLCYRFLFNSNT

Question: With `CC[C@]1(O)C(=O)O[C@H]2[C@H]1[C@H](OC(C)=O)C/C(C)=C/CC[C@@]1(C)O[C@@H]21` as the molecule, how does the IC50 (A549) read?
Answer: > 200 µM

Question: What about the IC50 (MCF7) of the same molecule?
Answer: 45.7 µM

Question: For `CC(=O)CC[C@@H]1C[C@@]2(OC1(C)C)C(=O)CC[C@@]2(C)O`, which IC50 [1] is on record?
Answer: 46.3 µM

Question: What does the source list for `C=C1C(=O)O[C@H]2[C@H]1[C@H](OC(C)=O)C/C(C)=C/CC[C@@]1(C)O[C@@H]21`?
Answer: IC50 (A549): 7.3 µM; IC50 (MCF7): 1.5 µM

Question: How did the IC50 (A549) turn out when `COc1cccc2c1C(=O)c1c(O)c3c(c(O)c1C2=O)C[C@@](O)(C(=O)CO)C[C@@H]3O[C@H]1C[C@H](N)[C@H](O)[C@H](C)O1` [DOXORUBICIN] was run?
Answer: 0.21 µM
